These results are taken from patent US7186831B2, “5-halo-2-alkyl[1,2,4]triazolo[1,5-a]pyrimidin-7-amines” (priority 2001, dated 2007).

The data set is described as follows: log P by HPLC. Type of data set: physicochemical.
[1] abbreviates: HPLC, gradient method, acetonitrile/0.1% aqueous phosphoric acid, EEC directive 79/831 Annex V. A8.
[2] abbreviates: EEC directive 79/831 Annex V. A8 by HPLC (gradient method, acetonitrile/0.1% aqueous phosphoric acid).

Usually logP stands for the decadic logarithm of the partition coefficient of the neutral form, usually between octanol and water. Read a high logP as a more lipophilic compound. `CCC(C)Nc1c(-c2ccc(F)cc2F)c(Cl)nc2nc(C(F)(F)F)nn12` (stereo not shown) [compound 528] gave a logP under setting [1] of 4.03.

Molecule `C=C(C)CNc1c(-c2c(F)cc(F)cc2F)c(Cl)nc2nc(C)nn12` [compound 16] yielded a log partition coefficient (logP) under setting [1] of 2.76.

Under setting [2], `CCN(CCC#N)c1c(-c2ccc(F)cc2F)c(Cl)nc2nc(C)nn12` [compound 413] showed a logP of 2.58.

`CNc1c(-c2c(F)cc(F)cc2F)c(Cl)nc2nc(C)nn12` [compound 90] displayed a logP under setting [1] of 2.12.

`Cc1nc2nc(Cl)c(-c3ccc(F)cc3F)c(NC3CCCCC3C(F)(F)F)n2n1` (stereo not shown) [compound 408] showed a logP under setting [2] of 3.56.

`Cc1nc2nc(Cl)c(-c3c(F)cc(F)cc3F)c(N3CCC(C(F)(F)F)CC3)n2n1` [compound 67] returned a logP under setting [1] of 3.6.

Molecule `Fc1ccc(-c2c(Cl)nc3nc(C4CC4)nn3c2N2CCC3(CC2)OCCO3)c(F)c1` [compound 609] gave a logP under setting [1] of 3.22.

In turn, `CCCN(CC1CC1)c1c(-c2ccccc2Cl)c(Cl)nc2nc(C)nn12` [compound 243] showed a logP under setting [1] of 4.07.

Under setting [1], `Cc1nc2nc(Cl)c(-c3c(F)cc(F)cc3F)c(N(C)CCN(C)C)n2n1` [compound 148] showed a lipophilicity (logP) of 1.5.

Molecule `Fc1cc(F)c(-c2c(Cl)nc3nc(C(F)(F)F)nn3c2NC2CCCC2)c(F)c1` [compound 32] displayed a logP under setting [1] of 4.25.

On to `CCN(CCN(C)C)c1c(-c2ccc(F)cc2F)c(Cl)nc2nc(C3CC3)nn12` [compound 723], for which the logP under setting [1] amounted to 1.65.

`CCc1nc2nc(Cl)c(-c3c(F)cc(F)cc3F)c(NCCC(F)(F)F)n2n1` [compound 6] showed a lipophilicity (logP) under setting [1] of 3.18.

For `CC(C)CC(C)Nc1c(-c2ccc(F)cc2Cl)c(Cl)nc2nc(C3CC3)nn12` (stereo not shown) [compound 637], the lipophilicity (logP) under setting [1] turned out to be 4.61.

In turn, `Cc1nc2nc(Cl)c(-c3c(F)cccc3F)c(N3CCC(C)CC3)n2n1` [compound 313] displayed a logP under setting [2] of 3.64.

`Cc1ccc(Nc2c(-c3ccc(F)cc3F)c(Cl)nc3nc(C(F)(F)F)nn23)cc1` [compound 813] had a log partition coefficient (logP) under setting [1] of 4.08.

As to `CCN(CCOC)c1c(-c2ccc(F)cc2F)c(Cl)nc2nc(C(F)(F)F)nn12` [compound 558], under setting [1], the logP was 4.03.

Consider `Cc1nc2nc(Cl)c(-c3ccccc3F)c(NC3CCCCC3C(F)(F)F)n2n1` (stereo not shown) [compound 398], for which the logP under setting [2] is 3.49.

Under setting [1], `Fc1ccc(-c2c(Cl)nc3nc(C4CC4)nn3c2NCC(F)(F)F)c(Cl)c1` [compound 638] registered a logP of 3.37.

As to `CC(Nc1c(-c2ccc(F)cc2Cl)c(Cl)nc2nc(C3CC3)nn12)C(F)(F)F` (racemic) [compound 505], under setting [2], the logP is listed as 3.75.

As for `Fc1ccc(-c2c(Cl)nc3nc(C4CC4)nn3c2N2CCC(F)CC2)c(F)c1` [compound 513], under setting [2], the logP was found to be 3.45.

Under setting [2], `Cc1nc2nc(Cl)c(-c3ccccc3F)c(NOCc3ccccc3Cl)n2n1` [compound 366] returned a logP of 3.21.

The molecule `COC(=O)C(C)Nc1c(-c2c(F)cc(F)cc2F)c(Cl)nc2nc(C)nn12` (stereo not shown) [compound 124] showed a log partition coefficient (logP) under setting [1] of 2.45.

`Cc1nc2nc(Cl)c(-c3c(F)cccc3F)c(NOCc3ccc(Cl)cc3Cl)n2n1` [compound 429]: the logP under setting [2] is given as 3.69.

As for `Fc1ccc(-c2c(Cl)nc3nc(C4CC4)nn3c2NCC2CC2)c(F)c1` [compound 656], the log partition coefficient (logP) under setting [1] was 3.26.

For the molecule `Cc1ccc(Nc2c(-c3ccc(F)cc3F)c(Cl)nc3nc(C4CC4)nn23)cc1` [compound 521], the logP under setting [2] came out at 3.6.

For `CCc1nc2nc(Cl)c(-c3c(F)cc(F)cc3F)c(NC)n2n1` [compound 93], under setting [1], the logP came to 2.44.

In turn, `Fc1cc(F)c(-c2c(Cl)nc3nc(C(F)(F)F)nn3c2N2CCCCC2)c(F)c1` [compound 104] returned a logP under setting [1] of 4.46.

For `Cc1nc2nc(Cl)c(-c3ccccc3F)c(NOCc3ccc(C(F)(F)F)cc3)n2n1` [compound 365], the logP under setting [2] stood at 3.43.

Turning to `CCC(C)Nc1c(-c2c(F)cccc2Cl)c(Cl)nc2nc(C3CC3)nn12` (stereo not shown) [compound 478], under setting [2], the log partition coefficient (logP) was determined as 3.66.

`CCN(CC)c1c(-c2ccccc2F)c(Cl)nc2nc(C)nn12` [compound 387] came in with a logP under setting [2] of 2.95.

As for `Cc1nc2nc(Cl)c(-c3ccccc3F)c(NCCC(F)(F)F)n2n1` [compound 395], the logP under setting [2] is 2.7.

In turn, `C[C@H](Nc1c(-c2ccc(F)cc2F)c(Cl)nc2nc(C3CC3)nn12)C(F)(F)F` (single isomer, unassigned) [compound 490] registered a logP under setting [2] of 3.52.

Under setting [2], `Cc1nc2nc(Cl)c(-c3ccccc3F)c(NOCc3ccccc3)n2n1` [compound 363] displayed a logP of 2.93.

Consider `CC(C)CN(N)c1c(-c2ccc(Cl)cc2Cl)c(Cl)nc2nc(C3CC3)nn12` [compound 750], for which, under setting [1], the logP came to 4.36.

Molecule `Fc1ccc(-c2c(Cl)nc3nc(C4CC4)nn3c2NC2CCCC2)c(Cl)c1` [compound 624] had a logP under setting [1] of 4.13.

In the case of `CC1CCCCN1c1c(-c2ccccc2Cl)c(Cl)nc2nc(C3CC3)nn12` (stereo not shown) [compound 499], the logP under setting [2] is given as 4.61.

`C=C(C)CN(CC)c1c(-c2c(F)cc(F)cc2F)c(Cl)nc2nc(C(F)(F)F)nn12` [compound 95] showed a logP under setting [1] of 4.69.

Under setting [1], `Fc1cc(F)c(-c2c(Cl)nc3nc(C4CC4)nn3c2NCC(F)(F)F)c(F)c1` [compound 672] had a logP of 3.25.

Turning to `CC1CCN(c2c(-c3c(F)cc(F)cc3F)c(Cl)nc3nc(C4CC4)nn23)CC1` [compound 473], the lipophilicity (logP) under setting [2] worked out at 4.66.

`COC(=O)C1CCN(c2c(-c3ccc(F)cc3F)c(Cl)nc3nc(C)nn23)CC1` [compound 292] came in with a logP under setting [2] of 2.78.

`Cc1nc2nc(Cl)c(-c3c(F)cccc3F)c(N3CCC(Br)CC3)n2n1` [compound 319] returned a logP under setting [2] of 3.33.

Take `COC(OC)C(C)Nc1c(-c2c(F)cc(F)cc2F)c(Cl)nc2nc(C)nn12` (stereo not shown) [compound 123]: the logP under setting [1] is listed as 2.74.

Turning to `CCCNc1c(-c2c(F)cc(F)cc2F)c(Cl)nc2nc(C(F)(F)F)nn12` [compound 106], the logP under setting [1] turned out to be 3.82.

Molecule `CCC(C)Nc1c(-c2ccccc2Cl)c(Cl)nc2nc(C)nn12` (stereo not shown) [compound 212] had a logP under setting [1] of 3.09.

Regarding `Cc1nc2nc(Cl)c(-c3c(F)cccc3Cl)c(N3CCC(C)CC3)n2n1` [compound 262], under setting [2], the logP is 3.99.

Turning to `Fc1ccc(-c2c(Cl)nc3nc(C4CC4)nn3c2NC2CCCCC2)c(F)c1` [compound 652], the logP under setting [1] is recorded as 4.02.

The molecule `CC(NNc1c(-c2ccc(F)cc2Cl)c(Cl)nc2nc(C3CC3)nn12)C1CC1` (stereo not shown) [compound 620] registered a logP under setting [1] of 3.81.

For `Cc1nc2nc(Cl)c(-c3ccccc3F)c(NC3CC3)n2n1` [compound 390], the logP under setting [2] is on record as 2.41.

Consider `Cc1nc2nc(Cl)c(-c3ccccc3F)c(NOCc3ccc(F)cc3)n2n1` [compound 369], for which the logP under setting [2] is reported as 2.98.

`Fc1cccc(Cl)c1-c1c(Cl)nc2nc(C3CC3)nn2c1NCC1CC1` [compound 482] came in with a logP under setting [2] of 3.4.

Take `C=C(C)CN(CC)c1c(-c2ccc(Cl)cc2Cl)c(Cl)nc2nc(C)nn12` [compound 783]: under setting [1], the lipophilicity (logP) was found to be 4.56.

What is called chromatographic logP is lipophilicity estimated from chromatographic retention. A lower chromatographic logP goes with a more hydrophilic compound. As to `Oc1nc2nc(C(F)(F)F)nn2c(O)c1-c1c(F)cc(F)cc1F` [Example 832, 2-trifluoromethyl-6-(2,4,6-trifluoro-phenyl)-[1,2,4]triazolo[1,5-a]pyrimidine-5,7-diol], the chromatographic logP (HPLC) was determined as 0.81.

Take `Cc1nc2nc(Cl)c(-c3c(F)cccc3F)c(N(C)CC3OCCO3)n2n1` [compound 332]: the lipophilicity (logP) under setting [2] came to 2.43.

Turning to `Cc1nc2nc(Cl)c(-c3ccc(F)cc3Cl)c(N[C@@H](C)C(F)(F)F)n2n1` (single isomer, unassigned) [compound 641], the logP under setting [1] is listed as 3.2.

Turning to `Cc1nc2nc(Cl)c(-c3ccccc3Cl)c(N3CCOCC3)n2n1` [compound 234], the log partition coefficient (logP) under setting [1] is listed as 2.38.

The molecule `COCCNc1c(-c2ccc(F)cc2F)c(Cl)nc2nc(C3CC3)nn12` [compound 654] showed a logP under setting [1] of 2.75.

In turn, `C=C(C)CN(CC)c1c(-c2ccc(F)cc2Cl)c(Cl)nc2nc(C)nn12` [compound 643] gave a logP under setting [1] of 4.06.

As for `Cc1nc2nc(Cl)c(-c3c(F)cccc3F)c(NOCC(C)C)n2n1` [compound 135], under setting [1], the logP is reported as 2.88.

Under setting [1], `C=C(C)CN(CC)c1c(-c2c(F)cc(F)cc2F)c(Cl)nc2nc(C(F)(F)F)nn12` [compound 10] yielded a logP of 4.73.

On to `C=CC(C)Nc1c(-c2c(F)cc(F)cc2F)c(Cl)nc2nc(C)nn12` (stereo not shown) [compound 417], for which the logP under setting [2] came out at 2.85.

As for `CCN(CC)c1c(-c2c(F)cccc2F)c(Cl)nc2nc(C)nn12` [compound 175], the logP under setting [1] was 2.98.

`CC(C)C(C)Nc1c(-c2c(F)cc(F)cc2F)c(Cl)nc2nc(C3CC3)nn12` (stereo not shown) [compound 581] showed a logP under setting [1] of 4.03.

On to `Cc1nc2nc(Cl)c(-c3c(F)cccc3F)c(NOCc3ccc(Cl)cc3)n2n1` [compound 138], for which, under setting [1], the logP is listed as 3.23.

`Cc1nc2nc(Cl)c(-c3c(F)cc(F)cc3F)c(NCC#N)n2n1` [compound 18] registered a logP under setting [1] of 2.02.

The molecule `CCCN(Cc1cccs1)c1c(-c2c(F)cccc2F)c(Cl)nc2nc(C)nn12` [compound 570] displayed a logP under setting [1] of 3.96.

As to `CCOC(=O)CN(CC)c1c(-c2c(F)cccc2F)c(Cl)nc2nc(C)nn12` [compound 343], the logP under setting [2] was determined as 2.85.

For the molecule `Fc1cccc(F)c1-c1c(Cl)nc2nc(C3CC3)nn2c1N1CC=CCO1` [compound 770], the logP under setting [1] stood at 3.32.

`Cc1nc2nc(Cl)c(-c3c(F)cccc3F)c(NCC3CC3)n2n1` [compound 181] came in with a logP under setting [1] of 2.62.

`Cc1nc2nc(Cl)c(-c3ccc(F)cc3F)c(NC3CCC(C(F)(F)F)CC3)n2n1` (stereo not shown) [compound 409] gave a logP under setting [2] of 3.56.

In turn, `CC(C)CN(N)c1c(-c2c(F)cccc2Cl)c(Cl)nc2nc(C3CC3)nn12` [compound 791] registered a logP under setting [1] of 3.74.

`Cc1nc2nc(Cl)c(-c3c(F)cc(F)cc3F)c(NCC3CC3)n2n1` [compound 68] returned a logP under setting [1] of 2.86.

In turn, `C=C(C)CN(C)c1c(-c2c(F)cc(F)cc2F)c(Cl)nc2nc(C)nn12` [compound 155] had a logP under setting [1] of 3.55.

Consider `Cc1nc2nc(Cl)c(-c3c(F)cccc3F)c(N3CCC(F)CC3)n2n1` [compound 443], for which the logP under setting [2] is given as 2.85.
